Results published in ChEMBL document CHEMBL1138171, “5-Heteroatom-substituted pyrazoles as canine COX-2 inhibitors: Part 2. Structure-activity relationship studies of 5-alkylethers and 5-thioethers” (Bioorg Med Chem Lett, 2006).

Key:
Canis lupus familiaris = species: Canis lupus familiaris; assay: Selectivity for COX1 over COX2 by canine whole blood assay
[1] = molecular target: T1, Prostaglandin G/H synthase 1 (Canis lupus familiaris, UniProt Q8HZR1); assay: Inhibition of COX1 by canine whole blood assay; assay type: tissue-based
T1 sequence (Q8HZR1 whole entry): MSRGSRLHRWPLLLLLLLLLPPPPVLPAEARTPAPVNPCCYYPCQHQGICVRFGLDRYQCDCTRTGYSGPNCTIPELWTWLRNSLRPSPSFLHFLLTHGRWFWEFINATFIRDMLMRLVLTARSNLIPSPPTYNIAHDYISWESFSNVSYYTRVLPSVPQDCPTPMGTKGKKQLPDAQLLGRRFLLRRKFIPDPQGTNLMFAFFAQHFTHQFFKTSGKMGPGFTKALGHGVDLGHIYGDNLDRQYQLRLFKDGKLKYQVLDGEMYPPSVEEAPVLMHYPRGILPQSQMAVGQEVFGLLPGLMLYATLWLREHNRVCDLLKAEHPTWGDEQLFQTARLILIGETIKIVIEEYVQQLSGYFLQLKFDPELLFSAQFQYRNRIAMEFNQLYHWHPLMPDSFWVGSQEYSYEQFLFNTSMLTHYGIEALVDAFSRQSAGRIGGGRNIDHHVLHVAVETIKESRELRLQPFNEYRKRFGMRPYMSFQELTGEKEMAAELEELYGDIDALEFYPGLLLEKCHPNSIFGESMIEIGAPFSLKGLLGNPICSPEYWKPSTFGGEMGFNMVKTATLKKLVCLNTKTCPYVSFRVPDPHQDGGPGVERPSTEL

Cyclooxygenase-2 = molecular target: T2, Cyclooxygenase-2 (Canis lupus familiaris, UniProt Q8SPQ9)
T2 sequence (Q8SPQ9 whole entry): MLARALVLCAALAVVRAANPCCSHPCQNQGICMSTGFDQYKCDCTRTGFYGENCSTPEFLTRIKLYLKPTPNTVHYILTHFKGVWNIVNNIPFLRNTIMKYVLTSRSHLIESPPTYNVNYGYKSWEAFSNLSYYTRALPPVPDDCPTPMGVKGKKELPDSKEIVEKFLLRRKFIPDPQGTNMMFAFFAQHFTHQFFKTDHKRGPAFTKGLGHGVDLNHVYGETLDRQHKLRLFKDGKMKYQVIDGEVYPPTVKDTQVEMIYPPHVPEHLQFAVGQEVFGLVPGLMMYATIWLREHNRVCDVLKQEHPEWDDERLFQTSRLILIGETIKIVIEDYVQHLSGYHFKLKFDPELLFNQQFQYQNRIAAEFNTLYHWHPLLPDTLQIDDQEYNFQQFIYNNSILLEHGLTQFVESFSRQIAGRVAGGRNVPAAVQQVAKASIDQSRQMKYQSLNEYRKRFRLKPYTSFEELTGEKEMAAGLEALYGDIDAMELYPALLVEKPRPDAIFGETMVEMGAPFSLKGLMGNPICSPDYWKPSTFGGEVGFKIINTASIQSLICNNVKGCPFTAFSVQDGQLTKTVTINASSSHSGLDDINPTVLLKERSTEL
Description: Inhibition of COX2 by canine whole blood assay

[2] = Cmax in Beagle dog at 2 mg/kg, po; assay type: ADME, organism-based, Canis lupus familiaris; parameters: dose 2 mg/kg, route oral; settings: in vivo
[3] = Tmax in Beagle dog at 2 mg/kg, po; assay type: ADME, organism-based, Canis lupus familiaris; parameters: dose 2 mg/kg, route oral; settings: in vivo
Canis familiaris [4] = assay: AUC in Beagle dog at 2 mg/kg, po; assay type: ADME, organism-based, Canis lupus familiaris, Plasma; parameters: dose 2 mg/kg, route oral; settings: in vivo
[5] = Half life in Beagle dog at 2 mg/kg, po; assay type: ADME, organism-based, Canis lupus familiaris; parameters: dose 2 mg/kg, route oral; settings: in vivo
[6] = Cmax in Beagle dog at 5 mg/kg, po; assay type: ADME, organism-based, Canis lupus familiaris; parameters: dose 5 mg/kg, route oral; settings: in vivo
[7] = Tmax in Beagle dog at 5 mg/kg, po; assay type: ADME, organism-based, Canis lupus familiaris; parameters: dose 5 mg/kg, route oral; settings: in vivo
[8] = Half life in Beagle dog at 5 mg/kg, po; assay type: ADME, organism-based, Canis lupus familiaris; parameters: dose 5 mg/kg, route oral; settings: in vivo
Canis familiaris [9] = species: Canis familiaris; settings: dog, in vivo, po, 5 mg/kg
Description: AUC in Beagle dog at 5 mg/kg, po

Compound | Ratio (Canis lupus familiaris) | IC50 [1] [nM] | IC50 (Cyclooxygenase-2) [nM] | further results
CCCSc1c(C#N)c(C(F)(F)F)nn1-c1ccc(S(C)(=O)=O)cn1 | > 3.8 | 200 | < 50 | 
CCCCCSc1c(C#N)c(C(F)(F)F)nn1-c1ccc(S(C)(=O)=O)cn1 | 11.7 | 3500 | 300 | 
CS(=O)(=O)c1ccc(-n2nc(C(F)(F)F)c(C#N)c2OCC2CC=CCC2)nc1 (stereo not drawn) | 78 | 10600 | 140 | Cmax [2]: 363 ng/mL; Tmax [3]: 1 h; AUC (Canis familiaris [4]): 742 ng·h/mL; half-life [5]: 2 h
CS(=O)(=O)c1ccc(-n2nc(C(F)(F)F)cc2OCC2CC2)nc1 |  |  | > 500 | 
CCC(COC)Oc1c(C#N)c(C(F)(F)F)nn1-c1ccc(S(C)(=O)=O)cn1 (stereo not drawn) |  |  | > 500 | 
CS(=O)(=O)c1ccc(-n2nc(C(F)(F)F)c(C#N)c2Oc2cccc3c2CCCC3)nc1 | 0.1 | 100 | 900 | 
CCCC(C)Oc1c(C#N)c(C(F)(F)F)nn1-c1ccc(S(C)(=O)=O)cn1 (stereo not drawn) |  |  | > 500 | 
CCC(C)Sc1c(C#N)c(C(F)(F)F)nn1-c1ccc(S(C)(=O)=O)cn1 (stereo not drawn) | > 29.5 | 1500 | < 50 | 
CC(C)Oc1c(Cl)c(C(F)(F)F)nn1-c1ccc(S(C)(=O)=O)cn1 |  |  | > 500 | 
CS(=O)(=O)c1ccc(-n2nc(C(F)(F)F)c(C#N)c2OC2CCC2)nc1 | 46.3 | 25300 | 550 | 
CC1CCCCC1Oc1c(C#N)c(C(F)(F)F)nn1-c1ccc(S(C)(=O)=O)cn1 (stereo not drawn) | 35 | 7100 | 200 | 
CCC(CC)Oc1cc(C(F)(F)F)nn1-c1ccc(S(C)(=O)=O)cn1 |  |  | 19600 | 
CS(=O)(=O)c1ccc(-n2nc(C(F)(F)F)c(C#N)c2OC2CCOC2)nc1 (stereo not drawn) |  |  | > 500 | 
CS(=O)(=O)c1ccc(-n2nc(C(F)(F)F)c(C#N)c2SC2CCCCC2)nc1 | 31.2 | 3200 | 100 | 
CCCCOc1cc(C(F)(F)F)nn1-c1ccc(S(C)(=O)=O)cn1 |  |  | > 500 | 
CS(=O)(=O)c1ccc(-n2nc(C(F)(F)F)cc2OC2CCCC2)nc1 |  |  | > 500 | 
CC(C)COc1cc(C(F)(F)F)nn1-c1ccc(S(C)(=O)=O)cn1 |  |  | 4100 | 
CC(C)CCCSc1c(C#N)c(C(F)(F)F)nn1-c1ccc(S(C)(=O)=O)cn1 | 8.1 | 3300 | 400 | 
C=C1CCC(COc2c(C#N)c(C(F)(F)F)nn2-c2ccc(S(C)(=O)=O)cn2)CC1 | 340 | 29700 | < 90 | 
CC(C)C(C)Oc1c(C#N)c(C(F)(F)F)nn1-c1ccc(S(C)(=O)=O)cn1 (stereo not drawn) | 127 | 11800 | 90 | 
CS(=O)(=O)c1ccc(-n2nc(C(F)(F)F)cc2OCc2cccc(F)c2)nc1 |  |  | > 500 | 
CS(=O)(=O)c1ccc(-n2nc(C(F)(F)F)c(C#N)c2SCc2ccccc2F)nc1 | 18.4 | 600 | 40 | 
CS(=O)(=O)c1ccc(-n2nc(C(F)(F)F)cc2OCc2ccccc2)nc1 |  |  | > 500 | 

Compound | Ratio (Canis lupus familiaris) | IC50 [1] [nM] | IC50 (Cyclooxygenase-2) [nM] | further results
CC(C)Oc1cc(C(F)(F)F)nn1-c1ccc(S(C)(=O)=O)cn1 |  |  | > 500 | Cmax [6]: 679 ng/mL; Tmax [7]: 0.8 h; half-life [8]: 34.8 h; AUC (Canis familiaris [9]): 6980 ng·h/mL
CS(=O)(=O)c1ccc(-n2nc(C(F)(F)F)cc2OCc2ccncc2)nc1 |  |  | > 500 | 
CCC(Oc1c(C#N)c(C(F)(F)F)nn1-c1ccc(S(C)(=O)=O)cn1)C(C)C (stereo not drawn) | > 287 | > 50000 | 170 | 
CS(=O)(=O)c1ccc(-n2nc(C(F)(F)F)cc2OCc2cccc3ccccc23)nc1 |  |  | > 500 | 
CS(=O)(=O)c1ccc(-n2nc(C(F)(F)F)c(C#N)c2Sc2ccccc2)nc1 | 3.6 | 200 | 60 | 
CCC(CC)Oc1c(C#N)c(C(F)(F)F)nn1-c1ccc(S(C)(=O)=O)cn1 |  |  | < 500 | 
Cc1c(C(F)(F)F)nn(-c2ccc(S(C)(=O)=O)cn2)c1OC(C)C |  |  | > 500 | 
CS(=O)(=O)c1ccc(-n2nc(C(F)(F)F)c(C#N)c2OC2CCCC2)nc1 |  |  | 210 | 
CS(=O)(=O)c1ccc(-n2nc(C(F)(F)F)c(C#N)c2SCc2ccccc2)nc1 | 12.1 | 900 | 80 | 
C[C@@H]1CN(c2c(C#N)c(C(F)F)nn2-c2ccc(S(C)(=O)=O)cn2)C[C@H](C)O1 | > 357 | > 50000 | 140 | AUC (Canis familiaris [4]): 4830 ng·h/mL
CS(=O)(=O)c1ccc(-n2nc(C(F)(F)F)c(C#N)c2Oc2ccccc2)nc1 |  |  | > 500 | 
COc1cc(C(F)(F)F)nn1-c1ccc(S(C)(=O)=O)cn1 |  |  | > 500 | 
CS(=O)(=O)c1ccc(-n2nc(C(F)(F)F)c(C#N)c2OCC2CCCC2)nc1 | 6.8 | 400 | 60 | 
CC1CCC(Oc2c(C#N)c(C(F)(F)F)nn2-c2ccc(S(C)(=O)=O)cn2)C1 (stereo not drawn) | 47 | 7600 | 160 | 
Cc1cccc(Oc2c(C#N)c(C(F)(F)F)nn2-c2ccc(S(C)(=O)=O)cn2)c1C | 0.3 | 100 | 170 | 
CS(=O)(=O)c1ccc(-n2nc(C(F)(F)F)c(C#N)c2OC2CCCCCC2)nc1 | 117 | 8000 | 70 | 
CCC(CC)Oc1c(C)c(C(F)(F)F)nn1-c1ccc(S(C)(=O)=O)cn1 |  |  | > 500 | 
CS(=O)(=O)c1ccc(-n2nc(C(F)(F)F)c(C#N)c2OCC2CCC2)nc1 |  |  | 80 | 
CS(=O)(=O)c1ccc(-n2nc(C(F)(F)F)cc2OC2CCCCC2)nc1 |  |  | > 500 | 
CC(C)COc1c(C#N)c(C(F)(F)F)nn1-c1ccc(S(C)(=O)=O)cn1 | 92 | 10000 | 110 | 
Cc1c(C(F)(F)F)nn(-c2ccc(S(C)(=O)=O)cn2)c1OCC(C)C |  |  | > 500 | 
CCOCCSc1c(C#N)c(C(F)(F)F)nn1-c1ccc(S(C)(=O)=O)cn1 | 11.8 | 2000 | 170 | 
